The values below come from a compilation of properties of binary mixtures (doi:10.1021/je300108z).

Structures are written as SMILES.

The nature of this series: xn = mol fraction of the nth substance listed. Conditions: 101 kPa.

For orientation: viscosity means the internal friction of a fluid under shear. With `CCCCCCCCCCCC[N+](CC)(CC)CC.O=S(=O)([N-]S(=O)(=O)C(F)(F)F)C(F)(F)F` + O, the viscosity was 97.2 mPa·s (302.95 K, x2 = 0.1238); 76.6 mPa·s (308.05 K, x2 = 0.1238); 60.7 mPa·s (313.05 K, x2 = 0.1238); 48.8 mPa·s (318.05 K, x2 = 0.1238); 39.19 mPa·s (322.95 K, x2 = 0.1238).
Take `CCCCCCCC[N+](CC)(CC)CC.O=S(=O)([N-]S(=O)(=O)C(F)(F)F)C(F)(F)F` + O: the viscosity is given as 107.8 mPa·s (293.25 K, x2 = 0.1442); 88.1 mPa·s (298.05 K, x2 = 0.1442); 69.8 mPa·s (303.05 K, x2 = 0.1442); 45.09 mPa·s (313.05 K, x2 = 0.1442).
On to `CCCCCC[N+](CC)(CC)CC.O=S(=O)([N-]S(=O)(=O)C(F)(F)F)C(F)(F)F` + O, for which the viscosity reads like this: (298.05 K, x2 = 0.1618) 66.7 mPa·s; (303.05 K, x2 = 0.1618) 54 mPa·s; (313.05 K, x2 = 0.1618) 36.49 mPa·s; (318.05 K, x2 = 0.1618) 30.73 mPa·s; (322.95 K, x2 = 0.1618) 25.98 mPa·s.
